Data reported in ChEMBL document CHEMBL4382216, “Asymmetric synthesis and biological evaluation of imidazole- and oxazole-containing synthetic lipoxin A4 mimetics (sLXms)” (Eur J Med Chem, 2019).
Activity calls are given as the source filed them. The rule behind the calls is not given here.

Columns and labels:
THP-1 [1] = assay: Cytotoxicity against human THP1 cells harboring NFkB-Luc assessed as LDH release at 10'7 M after 24 hrs by spectrophotometric method relative to control; format: cell-based; conditions: thp-1, 24 h
Homo sapiens [2] = organism: Homo sapiens; assay: Activation of Luc-fused NFkB (unknown origin) expressed in non-stimulated human THP1 cells assessed as relative luminescence unit at 10^-8 M after 24 hrs by luciferase reporter gene assay (reference value: 100%); format: cell-based
Homo sapiens [3] = organism: Homo sapiens; assay: Activation of Luc-fused NFkB (unknown origin) expressed in non-stimulated human THP1 cells assessed as relative luminescence unit at 10^-11 M after 24 hrs by luciferase reporter gene assay (reference value: 100%); format: cell-based
[4] = target: T1, N-formyl peptide receptor 2 (Homo sapiens, UniProt P25090); assay: Agonist activity at ALX/FPR2 in human THP1 cells harboring NF-kB-Luc assessed as inhibition of LPS-induced NFkB signalling activation by measuring reduction in IL-1beta secretion pretreated for 30 mins followed by LPS stimulation for 24 hrs by electrochemiluminescence assay; format: cell-based
T1 sequence (P25090 whole entry): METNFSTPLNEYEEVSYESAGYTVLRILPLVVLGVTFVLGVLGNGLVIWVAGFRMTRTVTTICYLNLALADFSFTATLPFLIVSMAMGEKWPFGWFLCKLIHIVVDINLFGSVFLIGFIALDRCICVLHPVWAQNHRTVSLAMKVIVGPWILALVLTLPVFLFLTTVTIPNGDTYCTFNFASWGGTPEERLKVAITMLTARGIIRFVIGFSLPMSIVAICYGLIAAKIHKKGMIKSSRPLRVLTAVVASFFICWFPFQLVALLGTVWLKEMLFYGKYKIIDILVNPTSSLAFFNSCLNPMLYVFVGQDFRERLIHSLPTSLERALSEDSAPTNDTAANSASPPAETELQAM

[5] = target: T1, N-formyl peptide receptor 2; assay: Agonist activity at ALX/FPR2 in human THP1 cells harboring NF-kB-Luc assessed as inhibition of LPS-induced NFkB signalling activation pretreated for 30 mins followed by LPS stimulation for 24 hrs by luciferase reporter gene assay; format: cell-based
Mus musculus [6] = assay: (§1) Anti-inflammatory activity in zymosan-induced C57BL/6J mouse peritonitis model assessed as PMN leukocytes level in peritoneal cavity at 150 ng, ip pretreated for 30 mins followed by zymosan treatment and redosing of test compound at 1 hr post zymosan addition and measured 4 hrs post zymosan addition by flow cytometry (reference value: 100%); format: functional
Mus musculus [7] = assay: as §1, with “total cell count” for “PMN leukocytes level”, “50” for “150”; format: functional
[8] = target: T1, N-formyl peptide receptor 2; assay: Agonist activity at ALX/FPR2 in human THP1 cells harboring NF-kB-Luc assessed as inhibition of LPS-induced NFkB signalling activation by measuring reduction in TNFalpha secretion pretreated for 30 mins followed by LPS stimulation for 24 hrs by electrochemiluminescence assay; format: cell-based; conditions: read-out: IC50
HEK293 = assay: Induction of intracellular calcium accumulation in HEK293 cells at 0.01 nM to 100 nM by Fluo-4 dye based fluorescence spectrophotometric assay; format: functional, cell-based; conditions: Homo sapiens
Homo sapiens [9] = organism: Homo sapiens; assay: Activation of Luc-fused NFkB (unknown origin) expressed in non-stimulated human THP1 cells assessed as relative luminescence unit at 10^-7 M after 24 hrs by luciferase reporter gene assay (reference value: 100%); format: cell-based
Homo sapiens [10] = organism: Homo sapiens; assay: Activation of Luc-fused NFkB (unknown origin) expressed in non-stimulated human THP1 cells assessed as relative luminescence unit at 10^-6 M after 24 hrs by luciferase reporter gene assay (reference value: 100%); format: cell-based
[11] = target: T1, N-formyl peptide receptor 2; assay: Agonist activity at ALX/FPR2 in human THP1 cells harboring NF-kB-Luc assessed as inhibition of LPS-induced NFkB signalling activation by measuring reduction in IFNgamma secretion pretreated for 30 mins followed by LPS stimulation for 24 hrs by electrochemiluminescence assay; format: cell-based; conditions: read-out: IC50
THP-1 [12] = assay: Cytotoxicity against human THP1 cells harboring NFkB-Luc assessed as LDH release at 10'8 M after 24 hrs by spectrophotometric method relative to control; format: cell-based; conditions: thp-1, 24 h
THP-1 [13] = assay: Cytotoxicity against human THP1 cells harboring NFkB-Luc assessed as LDH release at 10'11 M after 24 hrs by spectrophotometric method relative to control; format: cell-based; conditions: thp-1, 24 h
Homo sapiens [14] = organism: Homo sapiens; assay: Activation of Luc-fused NFkB (unknown origin) expressed in non-stimulated human THP1 cells assessed as relative luminescence unit at 10^-10 M after 24 hrs by luciferase reporter gene assay (reference value: 100%); format: cell-based
Homo sapiens [15] = organism: Homo sapiens; assay: Activation of Luc-fused NFkB (unknown origin) expressed in non-stimulated human THP1 cells assessed as relative luminescence unit at 10^-12 M after 24 hrs by luciferase reporter gene assay (reference value: 100%); format: cell-based
THP-1 [16] = assay: Cytotoxicity against human THP1 cells harboring NFkB-Luc assessed as LDH release at 10'10 M after 24 hrs by spectrophotometric method relative to control; format: cell-based; conditions: thp-1, 24 h
THP-1 [17] = assay: Cytotoxicity against human THP1 cells harboring NFkB-Luc assessed as LDH release at 10'9 M after 24 hrs by spectrophotometric method relative to control; format: cell-based; conditions: thp-1, 24 h
[18] = target: T1, N-formyl peptide receptor 2; assay: Agonist activity at ALX/FPR2 in human THP1 cells harboring NF-kB-Luc assessed as inhibition of LPS-induced NFkB signalling activation by measuring reduction in IL-12p70 secretion pretreated for 30 mins followed by LPS stimulation for 24 hrs by electrochemiluminescence assay; format: cell-based; conditions: read-out: IC50
Mus musculus [19] = assay: as §1, with “50” for “150”; format: functional
Homo sapiens [20] = organism: Homo sapiens; assay: Activation of Luc-fused NFkB (unknown origin) expressed in non-stimulated human THP1 cells assessed as relative luminescence unit at 10^-9 M after 24 hrs by luciferase reporter gene assay (reference value: 100%); format: cell-based
Mus musculus [21] = assay: as §1, with “total cell count” for “PMN leukocytes level”; format: functional
THP-1 [22] = assay: Cytotoxicity against human THP1 cells harboring NFkB-Luc assessed as LDH release at 10'6 M after 24 hrs by spectrophotometric method relative to control; format: cell-based; conditions: thp-1, 24 h
THP-1 [23] = assay: Cytotoxicity against human THP1 cells harboring NFkB-Luc assessed as LDH release at 10'12 M after 24 hrs by spectrophotometric method relative to control; format: cell-based; conditions: thp-1, 24 h
[24] = target: T1, N-formyl peptide receptor 2; assay: Agonist activity at ALX/FPR2 in human THP1 cells harboring NF-kB-Luc assessed as inhibition of LPS-induced NFkB signalling activation by measuring reduction in IL-6 secretion pretreated for 30 mins followed by LPS stimulation for 24 hrs by electrochemiluminescence assay; format: cell-based; conditions: read-out: IC50
[25] = target: T2, N-formyl peptide receptor 2 (Homo sapiens) (UniProt P25090); assay: Agonist activity at ALX/FPR2 in human THP1 cells harboring NF-kB-Luc assessed as inhibition of LPS-induced NFkB signalling activation by measuring IL-12p70 secretion at 10^-6 M pretreated for 30 mins followed by LPS stimulation for 24 hrs by electrochemiluminescence assay (reference value: 100%); format: cell-based; design: scale not given: the % may be the effect or the level left
T2 sequence (whole entry): T1 sequence (P25090 whole entry)

Mus musculus [26] = assay: as §1, with “25 ug,” for “150 ng,”, “1 hr” for “30 mins”; format: functional
Mus musculus [27] = assay: as §1, with “total cell count” for “PMN leukocytes level”, “25 ug,” for “150 ng,”, “1 hr” for “30 mins”; format: functional
[28] = target: T2, N-formyl peptide receptor 2 (Homo sapiens); assay: Agonist activity at ALX/FPR2 in human THP1 cells harboring NF-kB-Luc assessed as inhibition of LPS-induced NFkB signalling activation by measuring IL-1beta secretion at 10^-6 M pretreated for 30 mins followed by LPS stimulation for 24 hrs by electrochemiluminescence assay (reference value: 100%); format: cell-based; design: scale not given: the % may be the effect or the level left
[29] = target: T2, N-formyl peptide receptor 2 (Homo sapiens); assay: Agonist activity at ALX/FPR2 in human THP1 cells harboring NF-kB-Luc assessed as inhibition of LPS-induced NFkB signalling activation by measuring NF-kB activation level at 10^-6 M pretreated for 30 mins followed by LPS stimulation for 24 hrs by luciferase reporter gene assay; format: cell-based; design: scale not given: the % may be the effect or the level left
[30] = target: T2, N-formyl peptide receptor 2 (Homo sapiens); assay: Agonist activity at ALX/FPR2 in human THP1 cells harboring NF-kB-Luc assessed as inhibition of LPS-induced NFkB signalling activation by measuring IFNgamma secretion at 10^-6 M pretreated for 30 mins followed by LPS stimulation for 24 hrs by electrochemiluminescence assay (reference value: 100%); format: cell-based; design: scale not given: the % may be the effect or the level left
[31] = target: T2, N-formyl peptide receptor 2 (Homo sapiens); assay: Agonist activity at ALX/FPR2 in human THP1 cells harboring NF-kB-Luc assessed as inhibition of LPS-induced NFkB signalling activation by measuring TNFalpha secretion at 10^-6 M pretreated for 30 mins followed by LPS stimulation for 24 hrs by electrochemiluminescence assay (reference value: 100%); format: cell-based; design: scale not given: the % may be the effect or the level left
[32] = target: T2, N-formyl peptide receptor 2 (Homo sapiens); assay: Agonist activity at ALX/FPR2 in human THP1 cells harboring NF-kB-Luc assessed as inhibition of LPS-induced NFkB signalling activation by measuring IL-6 secretion at 10^-6 M pretreated for 30 mins followed by LPS stimulation for 24 hrs by electrochemiluminescence assay (reference value: 100%); format: cell-based; design: scale not given: the % may be the effect or the level left

CCCCC[C@@H](O)c1c(/C=C/[C@@H](O)[C@@H](O)CCCC(=O)OC)nc(C)n1C
fold change (FC) (THP-1 [1]): 0.9
Activity (Homo sapiens [2]): 2.1%
Activity (Homo sapiens [3]): 2.1%
IC50 [4]: Not Active
IC50 [5]: 1 nM
Emax (Mus musculus [6]): 32.5%
Emax (Mus musculus [7]): 57.9%
IC50 [8]: 5.6 nM
Activity (HEK293): inactive
Activity (Homo sapiens [9]): 2.5%
Activity (Homo sapiens [10]): 2%
IC50 [11]: 4.4 nM
fold change (FC) (THP-1 [12]): 0.9
fold change (FC) (THP-1 [13]): 0.9
Activity (Homo sapiens [14]): 2.3%
Activity (Homo sapiens [15]): 2%
fold change (FC) (THP-1 [16]): 0.9
fold change (FC) (THP-1 [17]): 0.8
IC50 [18]: 5.1 nM
Emax (Mus musculus [19]): 51.6%
Activity (Homo sapiens [20]): 2.1%
Emax (Mus musculus [21]): 30.4%
fold change (FC) (THP-1 [22]): 1.1
fold change (FC) (THP-1 [23]): 1
IC50 [24]: 76.6 nM

C[C@@H]1C[C@H]2[C@@H]3CCC4=CC(=O)C=C[C@]4(C)[C@@]3(F)[C@@H](O)C[C@]2(C)[C@@]1(O)C(=O)CO [DEXAMETHASONE]
Activity [25]: 62.6%
Emax (Mus musculus [26]): 51.5%
Activity (Homo sapiens [10]): 1.6%
Emax (Mus musculus [27]): 46.7%
Activity [28]: 13.6%
Activity [29]: 53.2%
Activity [30]: 45.1%
Activity [31]: 58.1%
Activity [32]: 1.5%
fold change (FC) (THP-1 [22]): 1.3
